In patent US7598244B2, “[1,2,4]triazolo[1,5,a]pyrimidin-2-ylurea derivative and use thereof” (Nippon Kayaku Kabushiki Kaisha, priority 2003, dated 2009):

System: MHC class I molecules of T1 cells (human lymphoma cell line 174×CEM.)
Assay: Effect on expression of MHC class I from T1 cells (flow cytometry, MFI)
Assay type: cell-based
Details: 3 days culture
Description: Effect on Expression of MHC Class I from T1 Cells (Human Lymphoma Cell Line 174×CEM.)
Using a 96-well flat bottom microplate, T1 cells (5.7×10^3 cells/200 μl/well) were cultured in an RPMI 1640 medium (Iwaki Glass) containing 10% fetal bovine serum (hereinafter abbreviated as FBS; Iruvine Scientific) in an incubator containing 5% carbon dioxide at 37° C. for 3 days, in the presence of a test compound having each concentration obtained by dilution at a common ratio route of 10 from 400 μM. After completion of the culture, the cells were stained with fluoroisothiocyanate-labeled mouse anti-human MHC class I monoclonal antibody (an antibody produced from the cell line W6/32 (ATCC No. CRL 1991)). The mean fluorescence intensity of the stained cells (hereinafter referred to as MFI) was measured using flow cytometry FACScan (BD). The obtained value was defined as an expression level of MHC class I molecules. A test compound concentration necessary for suppressing 20% of the expression level of MHC class I molecules (EC20 value) was calculated using the following formula (1).
[formula] • Eexp: MFI of cultured cells containing test compound after being stained with antibody • Cexp: MFI of cultured cells containing no test compounds after being stained with antibody

Row | SMILES | EC20 (concentration necessary for suppressing 20% of the expression level of MHC class I molecules)
1 | COc1ccc(-c2ccnc3nc(NC(=O)N[C@H](C(=O)NCc4ccccc4)C(C)C)nn23)cc1 [Example 089] | 0.21 µM
2 | COc1ccc(-c2ccnc3nc(NC(=O)NCCc4ccccn4)nn23)cc1 [Example 065] | 0.35 µM
3 | CC(C)NC(=O)Nc1nc2nccc(-c3ccc(O)cc3)n2n1 [Example 053] | 0.37 µM
4 | CC[C@H](C)NC(=O)Nc1nc2nccc(-c3ccc(OC)cc3)n2n1 [Example 234] | 0.22 µM
5 | COc1cccc([C@H](C)NC(=O)Nc2nc3nccc(-c4ccc(OCc5ccccc5)cc4)n3n2)c1 [Example 222, (S)-1-[7-(4-benzyloxyphenyl)-[1,2,4]triazolo[1,5-a]pyrimidin-2-yl]-3-[1-(3-methoxyphenyl)ethyl]urea] | 0.1 µM
6 | COCCNC(=O)[C@@H](NC(=O)Nc1nc2nccc(-c3ccc(OC)cc3)n2n1)C(C)C [Example 096] | 0.55 µM
7 | COc1ccc(-c2ccnc3nc(NC(=O)N[C@@H](C)C(=O)NCCN4CCCCC4)nn23)cc1.Cl [Example 125] | 0.82 µM
8 | COC(=O)[C@@H](C)NC(=O)Nc1nc2nccc(-c3ccc(OC)cc3)n2n1 [Example 126] | 0.32 µM
9 | C[C@H](NC(=O)Nc1nc2nccc(-c3cccc(O)c3)n2n1)c1cccc(O)c1 [Example 267] | 0.55 µM
10 | CCCC(C)NC(=O)Nc1nc2nccc(-c3ccc(OCCOC)cc3)n2n1 (stereo not drawn) [Example 286] | 0.16 µM
11 | COCCCNC(=O)Nc1nc2nccc(-c3ccc(OC)cc3)n2n1 [Example 106] | 0.51 µM
12 | COc1ccc(-c2ccnc3nc(NC(=O)N[C@H](C(=O)NCCc4ccncc4)C(C)C)nn23)cc1 [Example 116] | 0.57 µM
13 | O=C(Nc1ccc(O)cc1)Nc1nc2nccc(-c3cccs3)n2n1 [Example 023] | 0.43 µM
14 | COc1ccc(-c2ccnc3nc(NC(=O)NC(C)CCC(C)=O)nn23)cc1 (stereo not drawn) [Example 326] | 0.21 µM
15 | COc1ccc(-c2ccnc3nc(NC(=O)NCCC(=O)OC(C)(C)C)nn23)cc1 [Example 109] | 0.11 µM
16 | CNC(=O)[C@@H](NC(=O)Nc1nc2nccc(-c3ccc(OC)cc3)n2n1)C(C)C [Example 055] | 0.69 µM
17 | COc1ccc(-c2ccnc3nc(NC(=O)NCC4CCCCC4)nn23)cc1 [Example 099] | 0.44 µM
18 | COC[C@H](C)NC(=O)Nc1nc2nccc(-c3ccc(OC)cc3)n2n1 [Example 237] | 0.25 µM
19 | COc1ccc(-c2ccnc3nc(NC(=O)NCCCn4ccnc4)nn23)cc1 [Example 066] | 0.72 µM
20 | O=C(NCc1ccccc1)Nc1nc2nccc(-c3cccc(O)c3)n2n1 [Example 025] | 0.5 µM
21 | CC(C)CCC[C@H](C)NC(=O)Nc1nc2nccc(-c3cccc(OCc4ccccc4)c3)n2n1 [Example 256] | 0.55 µM
22 | COc1ccc(-c2ccnc3nc(NC(=O)N[C@H]4CCCc5ccccc54)nn23)cc1 [Example 134] | 0.05 µM
23 | COC(=O)C1CCC(NC(=O)Nc2nc3nccc(-c4ccc(OC)cc4)n3n2)CC1 (stereo not drawn) [Example 167] | 0.2 µM
24 | COc1ccc(-c2ccnc3nc(NC(=O)NCC(=O)OC(C)(C)C)nn23)cc1 [Example 110] | 0.79 µM
25 | CC(CCCC(C)(C)O)NC(=O)Nc1nc2nccc(-c3cccc(OCc4cccnc4)c3)n2n1 (stereo not drawn) [Example 313, 1-(5-hydroxy-1,5-dimethylhexyl)-3-{7-[3-(pyridin-3-ylmethoxy)phenyl]-[1,2,4]triazolo[1,5-a]pyrimidin-2-yl}urea] | 0.29 µM
26 | COc1ccc(-c2ccnc3nc(NC(=O)N[C@H](C(=O)NCc4cccnc4)C(C)C)nn23)cc1 [Example 078] | 0.67 µM

Row | SMILES | EC20 (concentration necessary for suppressing 20% of the expression level of MHC class I molecules)
27 | CC(C)CCC[C@H](C)NC(=O)Nc1nc2nccc(-c3ccc(O)cc3)n2n1 [Example 255, (S)-1-(1,5-dimethylhexyl)-3-[7-(4-hydroxyphenyl)-[1,2,4]triazolo[1,5-a]pyrimidin-2-yl]urea] | 0.0056 µM
28 | COc1ccc(-c2ccnc3nc(NC(=O)NC(C)CCN(C)C(=O)OC(C)(C)C)nn23)cc1 (stereo not drawn) [Example 277] | 0.18 µM
29 | CC(C)CCC[C@H](C)NC(=O)Nc1nc2nccc(-c3ccc(OCc4ccccc4)cc3)n2n1 [Example 254] | 0.23 µM
30 | O=C(Nc1nc2nccc(-c3cccc(O)c3)n2n1)NC1CCCCC1 [Example 085] | 0.4 µM
31 | CC(C)CCC[C@H](C)NC(=O)Nc1nc2nccc(-c3cccc(O)c3)n2n1 [Example 257] | 0.03 µM
32 | COC(=O)[C@H](C)NC(=O)[C@H](C)NC(=O)Nc1nc2nccc(-c3ccc(OC)cc3)n2n1 [Example 122] | 0.34 µM
33 | COc1ccc(-c2ccnc3nc(NC(=O)N[C@H](C(=O)N(C)C)C(C)C)nn23)cc1 [Example 056] | 0.55 µM
34 | COc1ccc(-c2ccnc3nc(NC(=O)NCCCc4ccccc4)nn23)cc1 [Example 102] | 0.19 µM
35 | COCCOc1cccc(-c2ccnc3nc(NC(=O)N[C@@H](C)CCCC(C)C)nn23)c1 [Example 264] | 0.07 µM
36 | COc1ccc(-c2ccnc3nc(NC(=O)NC(C)c4cc(OC)c(OC)c(OC)c4)nn23)cc1 (stereo not drawn) [Example 296] | 0.07 µM
37 | COc1cccc([C@H](C)NC(=O)Nc2nc3nccc(-c4ccc(OCCCN5CCOCC5)cc4)n3n2)c1 [Example 248] | 0.014 µM
38 | COc1ccc(-c2ccnc3nc(NC(=O)NCc4ccncc4)nn23)cc1 [Example 103] | 0.62 µM
39 | CC[C@H](NC(=O)Nc1nc2nccc(-c3ccc(OC)cc3)n2n1)c1ccccc1 [Example 130] | 0.13 µM
40 | CC(NC(=O)Nc1nc2nccc(-c3cccc(OCc4cccnc4)c3)n2n1)c1ccc2c(c1)OCO2 (stereo not drawn) [Example 306] | 0.23 µM
41 | CC(C)CCC[C@H](C)NC(=O)Nc1nc2nccc(-c3cccc(OCCN4CCOCC4)c3)n2n1 [Example 259] | 0.06 µM
42 | COc1cccc([C@H](C)NC(=O)Nc2nc3nccc(-c4ccc(OCCN5CCOCC5)cc4)n3n2)c1 [Example 269] | 0.015 µM
43 | COc1ccc(-c2ccnc3nc(NC(=O)N[C@@H](C)C(=O)Nc4ccccc4)nn23)cc1 [Example 117] | 0.19 µM
44 | COc1ccc(-c2ccnc3nc(NC(=O)N[C@@H](C)C(=O)N4CCN(C)CC4)nn23)cc1 [Example 123] | 0.48 µM
45 | CCNC(=O)[C@@H](NC(=O)Nc1nc2nccc(-c3ccc(OC)cc3)n2n1)C(C)C [Example 090] | 0.4 µM
46 | COc1cccc([C@H](C)NC(=O)Nc2nc3nccc(-c4ccc(OCC(=O)O)cc4)n3n2)c1 [Example 229] | 0.69 µM
47 | COc1ccc(-c2ccnc3nc(NC(=O)NC(C)CCC(C)C)nn23)cc1 (racemic) [Example 236] | 0.08 µM
48 | COC(=O)C1CCCC(NC(=O)Nc2nc3nccc(-c4ccc(OC)cc4)n3n2)C1 (stereo not drawn) [Example 168] | 0.67 µM
49 | O=C(Nc1nc2nccc(-c3ccccc3)n2n1)NC1CCCCC1 [Example 014] | 0.57 µM
50 | O=C(Nc1nc2nccc(-c3ccc(O)c(O)c3)n2n1)NC1CCCCC1 [Example 068] | 0.14 µM
51 | COCCOCCOCCOc1cccc(-c2ccnc3nc(NC(=O)N[C@@H](C)c4cccc(OC)c4)nn23)c1 [Example 239] | 0.11 µM
